Experimental data as given in article PMC4490130 (Cancer research, 2015).
pIC50: −log10 of the molar value.

Molecular target: Pim-1 (Homo sapiens, UniProt P11309)
Assay: X-ray crystal structure
Type: biochemical

pIC50: ~5.52
SMILES: O=C/C=C/c1ccccc1O [2′-HCA]
